For 18 compounds, EC50 and inhibition in vivo results are on record in patent publication US6156762A, “Indolomorphinan derivative and agent for curing and preventing cerebral disorder” (Toray Industries, Inc., priority 1997, dated 2000).

One test concerns cultured nerve cells. Description: Action of protecting cultured nerve cells from glutamic acid toxicity (LDH leakage). It counts as cell-based, Wistar rat. The following applies: rat fetal cerebral cortex cells, 10 mM glutamic acid, 24 hours, read-out: ED50 (the source's name). The text has this:
It is known that when the blood flow to the brain is temporarily clogged due to cerebral ischemia, hypoxia, or an trauma, delayed cerebral neuronal death is induced [Document: Brain Research, Vol. 239, 57 (1982)]. A possible cause of such damage of the cerebral nerve cells is excitatory toxicity due to an excitatory neutotransmitter such as glutamic acid or the like, which is excessively released with ischemia [Document: Trends in Neuroscience, vol. 10, 299 (1987)]. […] This is a problem to be solved by the invention. This action was evaluated by using the in vitro evaluation system which will be described below.
A fetus was taken from the abdomen of a Wistar female rat on the 18 to 19th day of pregnancy under aseptic conditions, and the head of the fetus was opened to extract the brain. The brain was placed in an ice-cooled L-15 medium, and the cerebral cortex was separated under a microscope. The cerebral cortexes of about 30 rats were cut into pieces, and then suspended in 10 ml of a 0.25% trypsin solution and 0.2 ml of a 0.01% DNase solution, followed by culture at 37° C. for 30 minutes. Then, 2 ml of serum was added to the solution, and immediately the resultant mixture was centrifuged at 120 rpm for 2 minutes to separate the precipitates. To the precipitates was added 7 ml of a DF medium (a medium obtained by adding 20 nM of transferrin, 5 μg/ml of insulin, 20 nM of progesterone,60 nM of selenite, 50 U/ml of penicillin, and 50 U/ml of streptomycin to a mixture equivalent amounts of Dulbecco modified Eagle medium and F-12 medium), followed by 20 pipetting operations using a 10-ml plastic pipette to obtain a cell suspension. The cell suspension was filtered with nylon mesh (pore diameter 43 μm) to fractionate isolated cells. The thus-obtained isolated cells were diluted with a DF medium to a concentration of 6.0×10^5 cells/ml, and 500 μl of the diluted cells was inoculated in each of the 48 wells of a 48-well culture plate precoated with polylysine, followed by culture at 37° C. for 1 day in the presence of 5% of CO2. On the 2nd day, the medium was changed to a new DF medium, and 10 μl of a solution of 0.5M glutamic acid in distilled water was added to each of the wells (the final glutamic acid concentration was 10 mM), followed by further culture at 37° C. for 24 hours in the presence 5% of CO2. A test compound was dissolved in distilled water, 10% or 100% DMSO or 10% methanol, and 5 μl of the solution was added to each of the wells immediately before glutamic acid was added. As an index of nerve cell damage, the enzyme activity of lactic acid dehydrogenase (LDH) leaking from the damaged cells into the medium was measured. For each of the test compounds, the LDH leakage was measured at each of concentrations to determine a dose-response curve by the modified Cochran-Armitige method. The 50% effective dose (ED50) of each of the test compounds we determined from the curve.
On the technique in general: LDH leaks from cells whose membrane has failed.

For test [1], the system named is middle cerebral artery ischemia model of rat. Description: Infarction inhibiting action in middle cerebral artery ischemia (MCAo-recirculation) model of rat. The conditions noted are these: ip, 24 h, 3 mg/kg i.p. 10 minutes before occlusion and 1 hour after recirculation, infarction volume one day after, vs control group, read-out: Rate of inhibition of infarction. It counts as in vivo. The source says: It is also known that, in this way, in the acute stage of cerebral infarction, the lesion proceeds to the peripheral tissue from the core of infarction, and death of the nerve cells is extended with the passage of several days. This possible not only extends and creates grave aftereffects, and causes loss of motor and mental function, but also finally critically influences on the life. As an in vivo experimental model of cerebral infarction which is capable of precisely evaluating the clinical effect of a medicine in conformity with clinical conditions of the disease of a patient of cerebral infarction, the middle cerebral artery occlusion (MCAo)-recirculation model comprising an embolus with a yarn using Wister rates may be used [Document: Japan Journal of Stroke, vol. 8, 1 (1986)]. […] This action was evaluated by applying the MCAo model by the method which will be described below.
In rats of 10 weeks old, after etherization, a median incision of the cervical region was made up to the right carotid artery bifurcation under 1.0% halothane anesthetization with care to preserve the vagus nerves. The common carotid artery and the external carotid artery were separated from the periphery connective tissue with the right carotid artery bifurcation as the center, and each of the arteries was ligated by a 6-0 silk yarn (Eto yarn). Further, a yarn was wound on the internal carotid artery origin in preparation for ligation and fixing after insertion of the embolus. Next, the common carotid artery was incised, and the embolus was inserted from the common carotid artery to the internal carotid artery by about 15 to 16 mm, and ligated and fixed to the internal carotid artery by the silk yarn at the end thereof near the nylon yarn. In this operation, the end of the embolus was inserted into the anterior cerebral artery by about 1 to 2 mm beyond the middle cerebral artery bifurcation, and the inlet of the middle cerebral artery was occluded by the body (resin part) of the embolus for 1 hours. In recirculation, the embolus with a yarn was removed to recirculate the blood flow to the middle cerebral artery. 3 mg/kg of each of test compounds was intraperitoneally administered 10 minutes before occlusion and 1 hour after recirculation of the blood flow. One day after occlusion and recirculation, the whole body was perfused with physiologic saline through the heart, and the brain was extracted. The extracted brain was cooled with ice and water for 5 minutes, and cut at intervals of 2.0 mm to form 7 sections of the cerebral coronal surface. Each of the sections was stained with TTC (Triphenyltetrazolium Chloride), and fixed by a 5% neutral buffer formalin solution. In each of the sections, the infarction area in the right cerebral hemisphere was measured by an image analyzer (Olympus), and the infarction was evaluated by volume (mm^3). The infarction volume was compared with the infarction volume of a control group to calculate the rate of inhibition of infarction.

As to `Oc1ccc2c3c1O[C@H]1c4c(c5ccccc5n4-c4ccccc4)C[C@@]4(O)[C@@H](C2)N(CC2CC2)CC[C@]314` [Compound 4, 17-cyclopropylmethyl-3,14β-dihydroxy-6,7-dehydro-4,5α-epoxy-6,7,2',3'-(1'-phenylindolo)morphinan], the EC50 in the test on cultured nerve cells came out at 80 nM.
In the case of `Cc1ccc(Cn2c3c(c4ccc5ccccc5c42)C[C@@]2(O)[C@H]4Cc5ccc(O)c6c5[C@@]2(CCN4CC2CC2)[C@H]3O6)cc1` [Compound 71], in the test on cultured nerve cells, the EC50 was determined as 19 nM.
Still for that read-out and setting: the figure for `Oc1ccc2c3c1O[C@H]1c4c(c5ccc6ccccc6c5n4CCCN=C=S)C[C@@]4(O)[C@@H](C2)N(CC2CC2)CC[C@]314` [Compound 60, 17-cyclopropylmethyl-3,14β-dihydroxy-6,7-dehydro-4,5α-epoxy-6,7,2',3'-[1'-(3-isothiocyanatopropyl)-6',7'-benzoindolo)morphinan] is 93 nM.
As to `O=C(/C=C/c1cccc(C(F)(F)F)c1)NCCCn1c2c(c3ccc4ccccc4c31)C[C@@]1(O)[C@H]3Cc4ccc(O)c5c4[C@@]1(CCN3CC1CC1)[C@H]2O5` [Compound 65, 17-cyclopropylmethyl-3,14β-dihydroxy-6,7-dehydro-4,5α-epoxy-6,7,2',3'-[1'-(3-(3-trifluoromethylcinnamamido)propyl)-6',7'-benzoindolo]morphinan], in the test with cultured nerve cells, the EC50 stood at 110 nM.
As to `Oc1ccc2c3c1O[C@H]1c4[nH]c5c(cc(Cl)c6ccccc65)c4C[C@@]4(O)[C@@H](C2)N(CC2CC2)CC[C@]314` [Compound 10, 17-cyclopropylmethyl-3,14β-dihydroxy-6,7-dehydro-4,5α-epoxy-6,7,2',3'-(5'-chloro-6',7'-benzoindolo)morphinan], the inhibition in vivo at 3 mg/kg in test [1] came to 15%.
As for `CS(=O)(=O)n1c2c(c3ccc4ccccc4c31)C[C@@]1(O)[C@H]3Cc4ccc(O)c5c4[C@@]1(CCN3CC1CC1)[C@H]2O5` [Compound 78, 17-cyclopropylmethyl-3,14β-dihydroxy-6,7-dehydro-4,5α-epoxy-6,7,2',3'-(1'-methylsulfonyl 6',7'-benzoindolo)morphinan], the inhibition in vivo at 3 mg/kg in test [1] stood at 55%.
Regarding `Oc1ccc2c3c1O[C@H]1c4c(c5ccccc5n4Cc4ccccc4)C[C@@]4(O)[C@@H](C2)N(CC2CC2)CC[C@]314` [Compound 68, 17-cyclopropylmethyl-3,14β-dihydroxy-6,7-dehydro-4,5α-epoxy-6,7,2',3'-(1'-benzylindolo)morphinan], the EC50 in the test with cultured nerve cells stood at 91 nM.
On to `N#Cc1cc2c3c([nH]c2c2ccccc12)[C@@H]1Oc2c(O)ccc4c2[C@@]12CCN(CC1CC1)[C@H](C4)[C@]2(O)C3` [Compound 11, 17-cyclopropylmethyl-3,14β-dihydroxy-6,7-dehydro-4,5α-epoxy-6,7,2',3'-(5'-cyano-6',7'-benzoindolo)morphian], for which the EC50 in the test on cultured nerve cells worked out at 138 nM.
For the compound `COc1ccc2c3c1O[C@H]1c4[nH]c5ccc(C(C)(C)C)cc5c4C[C@@]4(O)[C@@H](C2)N(CC2CC2)CC[C@]314` [Compound 16, 17-cyclopropylmethyl-3-methoxy-14β-hydroxy-6,7-dehydro-4,5α-epoxy-6,7,2',3'-(5'-t-butylindolo)morphinan], the inhibition in vivo at 3 mg/kg in test [1] was found to be 22%.
With `O=C(/C=C/c1cccc(C(F)(F)F)c1)NCCCn1c2c(c3ccccc31)C[C@@]1(O)[C@H]3Cc4ccc(O)c5c4[C@@]1(CCN3CC1CC1)[C@H]2O5` [Compound 63, 17-cyclopropylmethyl-3,14β-dihydroxy-6,7-dehydro-4,5α-epoxy-6,7,2',3'-[1'-[3-(3-trifluoromethylcinnamido)propyl]indolo]morphinan], the EC50 in the test on cultured nerve cells is 150 nM.
Consider `Cc1cc2c3c([nH]c2c2ccccc12)[C@@H]1Oc2c(O)ccc4c2[C@@]12CCN(CC1CC1)[C@H](C4)[C@]2(O)C3` [Compound 13, 17-cyclopropylmethyl-3,14β-dihydroxy-6,7-dehydro-4,5α-epoxy-6,7,2',3'-(5'-methyl-6',7'-benzoindolo)morphinan], for which the EC50 in the test with cultured nerve cells is 93 nM.
The same measure, in the same setting: the figure for `Oc1ccc2c3c1O[C@H]1c4c(c5cc6c7c(cccc7c5n4Cc4ccccc4)CC6)C[C@@]4(O)[C@@H](C2)N(CC2CC2)CC[C@]314` [Compound 83, 17-cyclopropylmethyl-3,14β-dihydroxy-6,7-dehydro-4,5α-epoxy-6,7,2',3'-(1'-benzyl-5',6"-ethano-6',7'-benzoindolo)morphinan] is 73 nM; for `Oc1ccc2c3c1O[C@H]1c4[nH]c5c6c(ccc5c4C[C@@]4(O)[C@@H](C2)N(CC2CC2)CC[C@]314)Cc1ccccc1-6` [Compound 22, 17-cyclopropylmethyl-3,14β-dihydroxy-6,7-dehydro-4,5α-epoxy-6,7,2',3'-(6',7',2",3"-indenoindolo)morphinan] it is 50 nM; for `Oc1ccc2c3c1O[C@H]1c4[nH]c5c(cc(-c6ccccc6)c6ccccc65)c4C[C@@]4(O)[C@@H](C2)N(CC2CC2)CC[C@]314` [Compound 15, 17-cyclopropylmethyl-3,14β-dihydroxy-6,7-dehydro-4,5α-epoxy-6,7,2',3'-(5'-phenyl-6',7'-benzoindolo)morphinan] it is 150 nM.
On to `CCCCCCCc1ccc2c3c([nH]c2c1)[C@@H]1Oc2c(O)ccc4c2[C@@]12CCN(CC1CC1)[C@H](C4)[C@]2(O)C3` [Compound 7, 17-cyclopropylmethyl-3,14β-dihydroxy-6,7-dehydro-4,5α-epoxy-6,7,2',3'-(6'-heptylindolo)morphinan], for which the EC50 in the test on cultured nerve cells is 200 nM.
The same measure, in the same setting: the figure for `Oc1ccc2c3c1O[C@H]1c4c(c5ccccc5n4CCCN=C=S)C[C@@]4(O)[C@@H](C2)N(CC2CC2)CC[C@]314` [Compound 59, 17-cyclopropylmethyl-3,14β-dihydroxy-6,7-dehydro-4,5α-epoxy-6,7,2',3'-[1'-(3-isothiocyanatopropyl)indolo]morphinan] is 110 nM; for `Cn1c2c(c3cc4c5c(cccc5c31)CC4)C[C@@]1(O)[C@H]3Cc4ccc(O)c5c4[C@@]1(CCN3CC1CC1)[C@H]2O5` [Compound 84, 17-cyclopropylmethyl-3,14β-dihydroxy-6,7-dehydro-4,5α-epoxy-6,7,2',3'-(1'-methyl-5',6"-ethano-6',7'-benzoindolo)morphinan] it is 39 nM; for `NCCCn1c2c(c3ccccc31)C[C@@]1(O)[C@H]3Cc4ccc(O)c5c4[C@@]1(CCN3CC1CC1)[C@H]2O5` [Compound 24, 17-cyclopropylmethyl-3,14β-dihydroxy-6,7-dehydro-4,5α-epoxy-6,7,2',3'-[1'-(3-aminopropyl)indolo]morphinan] it is 800 nM.
